Test results reported in patent US8309766B2 (Obschestvo S. Organichennoi Otvetstvennostiyu …, priority 2005, dated 2012).
Where two headings read alike, the source gives them in different places.

Legend:
[1] = tested on: "acetic contortions" in mice; test: Effect on analgetic action of Tramal and Analgin on the model "acetic contortions"; type: in vivo, white mongrel mice
Method: (§1) The tests were conducted on males of white mongrel mice weighing 22-24 grams. The specific pain response (“contortions”) were elicited by intraperitoneal administration to mice of 0.75% acetic acid solution. The following signs were taken into consideration: the number of seizure contractions of abdominal muscles accompanied by stretching the hind limbs and sagging the back. Analgetic effect was assessed by decrease in the number of contortions in animals in percent to the control for 15 minutes post administration of acetic acid. The technique of the tests is disclosed in Koster R., Anderson M., de Beer B.//Fed. Proc. 1959. V. 18. P. 412. Compounds under testing were administered intraperitoneally (using a probe) at a dose 10 μg/kg 60 minutes prior to injection of the acid. Diclofenac (10 mg/kg) was used as a reference drug. Analgetic effect was calculated according to the formula: […]
The studies were carried out in accordance with the technique presented in Example 18.

[2] = tested on: mice, forced swimming; test: "Behavioral despair" test according to Porsolt; type: in vivo; conditions: 50 mg/kg orally
Method: The “behavioral despair” test according to Porsolt [R. D. Porsolt, A. Bertin and M. Jalfre.//in mice: A primary Screening Test for Antidepressants. Arch. Int. Pharmacodyn., 1977, 229, p. 327-336] is a predictive test for drugs with antidepressant action.
Stress state in mice (weighing 27-30 grams) is induced by forced swimming. Animals are placed into a cylinder (height 25 cm, diameter 10 cm) filled to ⅓ with water at temperature 21-23° C. The animals cannot escape from the cylinder by themselves. Following a short time of activity the animals develop a so called “behavioral depression” characterized by hovering of animals, immobilization duration of which can be fixed. The experiment is carried out in two days. One a first day, animals are placed into the cylinder for 15 minutes (pre-test). After removal from water, the animals are dried and preparations under testing are administered. At 24 hours, the preparations are administered again and one hour later the animals are placed into the cylinder for 6 minutes. During first two minutes the animals are actively swimming; during the subsequent four minutes, behavioral depression develops manifested by immobilization (hovering) which is fixed for 4 minutes and is measure in seconds. Compound IX and the reference antidepressant drug Fluoxetin were administered orally at a dose 50 mg/kg.

[3] = tested on: cyclooxygenase; test: In vitro effect on [14C]arachidonic acid metabolism in a cell-free homogenate of murine pulmonary tissue; type: biochemical, CBA mice; conditions: compound 10^−4 M; for Prostanoids / 6-keto-PGF1α / AA (arachidonic acid) / PGE2 / PGF2α / TXB2: 37° C., 30 minutes; for Prostanoids: b308 reads these as % cyclooxygenase inhibition; for 6-keto-PGF1α / AA (arachidonic acid) / PGE2 / PGF2α / TXB2: change; for 6-keto-PGF1α / PGF2α: first of only four cells in the row; for TXB2 / PGE2: second of only four cells in the row
Method: Studies of arachidonic acid metabolism was carried out on females CBA mice who where fed a standard vivarium fodder. Animals (mice) were sacrificed, lungs were extracted, homogenized in a glass homogenizer manufactured by the firm “Wheaton” (USA) at 4° C. in 10 volumes of 0.05 M Tris-HCl buffer. Aliquots (0.5 ml) of supernatant were incubated in 0.5 μCi [1-C^14]-arachidonic acid [C^14]-AA, “Amersham”, England; specific activity 50-60 μCi/mmole) at 37° C. for 30 minutes. Non-metabolized [αC^14]-AA and products of metabolism thereof were extracted in 20 volumes of chloroform and methanol mixture (1:1) in extraction efficacy not less than 90% assessed using [C^14]-PGF2α. [C^14]-AA and metabolites thereof were separated and identified using TLC (the plates Kieselgel 60 of the “Merck” firm, Germany) using as an organic phase, the system of solvents (ethylacetate, isooctane, acetic acid, water—110:50:20:100) and labeled standards. Densitometry of autoradiochromograms obtained on the X-ray film X-Omat AR (“Kodak”, USA) and HS 11 (“ORWO”, Germany), was performed on the densiscan KS 3 (“Kipp and Zonnen”, Holland). Quantitative analysis of individual eicosanoids was carried out using radiometry of fractions obtained by high-performance liquid chromatography (the HPLC-system of the “Gilson” form, France; the column ZORBAX C8 of the “Du Pont” firm, USA) and by elution of spots on TLC-plates. The tested compounds were administered at concentration 10^−4 M.

[4] = tested on: "acetic contortions" in mice; test: Analgetic activity on the model "acetic contortions"; type: in vivo, white mongrel mice; conditions: dose 10 mg/kg (table title); for inhibition in vivo at 10 mg/kg / response vs control in vivo at 10 mg/kg: Mus musculus, ip, 0.25 h; for inhibition in vivo at 10 mg/kg: read-out: Analgetic effect (%); for response vs control in vivo at 10 mg/kg: read-out: C, % to the control; for C ± m (the number of contortions for 15 minutes): 60 minutes prior to acetic acid
Method: as §1
wherein Ck is the number of contortions in the control group,
Co is the number of contortions in the test group.

[5] = tested on: "hot plate" test in mice; test: Analgetic activity on the model "hot plate"; type: in vivo, white mongrel mice; conditions: for response vs control in vivo at 10 mg/kg / change in vivo at 10 mg/kg: Mus musculus; for response vs control in vivo at 10 mg/kg: read-out: Latent time of NT (%); for change in vivo at 10 mg/kg: read-out: Analgesia (%)
Method: The tests were conducted on males of white mongrel mice weighing 22-24 grams. The animals were individually placed on a hot plate (manufactured by the firm “Ugo Basile”), a temperature of which remained constant and was equal to 55° C. The following first manifestations of pain reaction were recorded: licking paws, jumping up prior to administration of a substance (background parameters) and 0.5, 1, 2, 3 and 4 hours post administration of a substance. Substances were administered […] (using a probe). A weighed amount of a substance was thoroughly mixed in 0.1 ml Tween 80 until a solution was obtained, then normal saline was added up to a volume of 0.5 ml. Average latent time of nociception threshold (NT) was calculated in every group. The results obtained were expressed in percent of the background values. Analgetic effect (in %) was calculated according to the formula: A−100%=X, wherein A is a background parameter; X is analgetic effect (in %)
A is (time 0.5 to 4 hours post administration×100%): background time
As reference drugs, Analgin (150 mg/kg), Paracetamol (200 mg/kg), Ketorol (10 mg/kg), were used.

[6] = 10 mg/kg, 30 minutes post administration
[7] = 10 mg/kg, 60 minutes post administration
[8] = 10 mg/kg, 120 minutes post administration
[9] = 10 mg/kg, 240 minutes post administration
[10] = 1 h, 10 mg/kg, 60 minutes, percent of background
[11] = 2 h, 10 mg/kg, 120 minutes, percent of background
[12] = 0.5 h, 10 mg/kg, 30 minutes, percent of background
[13] = 4 h, 10 mg/kg, 240 minutes, percent of background

Row | SMILES | Prostanoids [3] | AA (arachidonic acid) [3] | inhibition in vivo at 10 mg/kg [4] | response vs control in vivo at 10 mg/kg [4] | C ± m (the number of contortions for 15 minutes) [4] | latent time of nociception threshold, M ± m [5, 6] | latent time of nociception threshold, M ± m [5, 7] | latent time of nociception threshold, M ± m [5, 8] | latent time of nociception threshold, M ± m [5, 9] | response vs control in vivo at 10 mg/kg [5, 10] | change in vivo at 10 mg/kg ([5]; 1 h, 10 mg/kg, 60 minutes) | response vs control in vivo at 10 mg/kg [5, 11] | change in vivo at 10 mg/kg ([5]; 2 h, 10 mg/kg, 120 minutes) | response vs control in vivo at 10 mg/kg [5, 12] | change in vivo at 10 mg/kg ([5]; 0.5 h, 10 mg/kg, 30 minutes) | other results
1 | COc1cccc(C2(O)CCCCC2CN(C)C)c1 (stereo not drawn) [Tramal, reference compound] |  |  |  |  |  |  |  |  |  |  |  |  |  |  |  | Analgetic effect, % ([1]; IX 10 mg/kg, Tramal 10 mg/kg, alone or combined): 53%
2 | CNCCC(Oc1ccc(C(F)(F)F)cc1)c1ccccc1 (stereo not drawn) [Fluoxetin, reference compound] |  |  |  |  |  |  |  |  |  |  |  |  |  |  |  | % change from the control [2]: −33%
3 | O=C(CCc1ccc(O)cc1)NCCc1ccc(O)cc1 [Compound X, 3-(p-hydroxyphenyl)-propionyltyramine] | −22 | +27 | 54% | 46% | 11.0 ± 2.4 | 7.54 ± 0.78 s | 5.75 ± 0.83 s | 8.50 ± 1.03 s | 8.84 ± 0.925 s |  |  |  |  |  |  | 6-keto-PGF1α [3]: −9; PGE2 [3]: −38; PGF2α [3]: −15; TXB2 [3]: −42; Analgesia (%) ([5]; 10 mg/kg, 30 minutes): 75.3%; Latent time of NT (%) ([5]; 10 mg/kg, 30 minutes, percent of background): 175.3%; Analgesia (%) ([5]; 10 mg/kg, 60 minutes): 33.8%; Latent time of NT (%) ([5]; 10 mg/kg, 60 minutes, percent of background): 133.7%; Analgesia (%) ([5]; 10 mg/kg, 120 minutes): 97.7%; Latent time of NT (%) ([5]; 10 mg/kg, 120 minutes, percent of background): 197.7%; Analgesia (%) ([5]; 10 mg/kg, 240 minutes): 100.6%; Latent time of NT (%) ([5]; 10 mg/kg, 240 minutes, percent of background): 200.6%
4 | Cc1c(N(C)CS(=O)(=O)[O-])c(=O)n(-c2ccccc2)n1C.[Na+] [Analgin, reference compound] |  |  |  |  |  |  |  |  |  |  |  |  |  |  |  | Analgetic effect, % ([1]; Analgin 50 mg/kg alone): 37.5%; Number of contortions for 15 minutes, M ± m ([1]; Analgin 50 mg/kg alone): 20.7 ± 2.3; Analgesia (%) ([5]; Analgin 150 mg/kg, 30 minutes): 53.4%; Latent time of NT (%) ([5]; Analgin 150 mg/kg, 30 minutes): 153.4%; latent time of nociception threshold, M ± m ([5]; Analgin 150 mg/kg, 30 minutes): 7.44 ± 1.22 s; Analgesia (%) ([5]; Analgin 150 mg/kg, 60 minutes): 50.3%; Latent time of NT (%) ([5]; Analgin 150 mg/kg, 60 minutes): 150.3%; latent time of nociception threshold, M ± m ([5]; Analgin 150 mg/kg, 60 minutes): 7.29 ± 0.71 s; Analgesia (%) ([5]; Analgin 150 mg/kg, 120 minutes): 28.9%; Latent time of NT (%) ([5]; Analgin 150 mg/kg, 120 minutes): 128.9%; latent time of nociception threshold, M ± m ([5]; Analgin 150 mg/kg, 120 minutes): 6.25 ± 0.75 s; Analgesia (%) ([5]; Analgin 150 mg/kg, 240 minutes): 10.3%; Latent time of NT (%) ([5]; Analgin 150 mg/kg, 240 minutes): 110.3%; latent time of nociception threshold, M ± m ([5]; Analgin 150 mg/kg, 240 minutes): 5.35 ± 0.38 s
5 | O=C(Cc1ccc(O)cc1)NCCc1ccccc1 | −40 | +40 | 56.5% | 43.5% | 16.0 ± 4.5 |  | 8.5 ± 0.27 s | 6.5 ± 1.16 s |  | 160% | 59.6% | 123% | 23.3% |  |  | 6-keto-PGF1α / PGF2α [3]: −45; TXB2 / PGE2 [3]: −33
6 | O=C(CCc1ccccc1)NCCc1ccccc1 [Compound XI, 3-phenylpropionylphenylethylamine] |  |  | 38.2% | 61.8% | 21.2 ± 2.5 | 5.35 ± 0.98 s | 6.49 ± 1.1 s |  | 4.07 ± 0.26 s | 174% | 74% |  |  | 143% | 43.4% | latent time of nociception threshold, M ± m ([5]; 10 mg/kg, 180 minutes post administration): 6.27 ± 0.33 s; response vs control in vivo at 10 mg/kg ([5]; 3 h, 10 mg/kg, 180 minutes, percent of background): 141%; change in vivo at 10 mg/kg ([5]; 3 h, 10 mg/kg, 180 minutes): 41.3%; response vs control in vivo at 10 mg/kg [5, 13]: 136%; change in vivo at 10 mg/kg ([5]; 4 h, 10 mg/kg, 240 minutes): 35.9%
7 | O=C(Cc1ccc(O)cc1)NC(Cc1ccccc1)C(=O)O (stereo not drawn) [Compound III, p-hydroxyphenylacetylphenylalanine] |  |  | 39.9% | 60.2% | 19.4 ± 3.3 | 6.7 ± 0.9 s | 5.9 ± 0.8 s | 7.0 ± 0.6 s |  | 160% | 59.5% | 189% | 89.2% | 181% | 81% | 
8 | O=C(CCc1ccc(O)cc1)N[C@@H](Cc1ccc(O)cc1)C(=O)O [Compound XIV, 3-(p-hydroxyphenyl)-propionyltyrosine] | −35 | +84 |  |  |  | 5.59 ± 1.12 s | 4.7 ± 0.51 s | 7.3 ± 1.09 s | 6.78 ± 0.504 s | 126% | 26.3% | 196% | 96.2% | 150% | 50.3% | 6-keto-PGF1α [3]: −24; PGE2 [3]: −54; PGF2α [3]: −24; TXB2 [3]: −49; response vs control in vivo at 10 mg/kg [5, 13]: 182%; change in vivo at 10 mg/kg ([5]; 4 h, 10 mg/kg, 240 minutes): 82.3%
9 | O=C(CCc1ccccc1)NCCc1ccc(O)cc1 [Compound XII, 3-phenylpropionyltyramine] | −44 | +42 | 41.4% | 58.6% | 20.1 ± 2.1 |  |  |  |  |  |  |  |  |  |  | 6-keto-PGF1α / PGF2α [3]: −42; TXB2 / PGE2 [3]: −47
